Measured values published in US20210177952A1, “METHOD AND COMPOSITION FOR STIMULATING IMMUNE RESPONSE” (BeyondSpring Pharmaceuticals, Inc., priority 2018, published 2021).

Legend:
ovalbumin IgG1 = test: Serum anti-ovalbumin IgG1 ELISA after OVA/CFA immunization of mice; format: in vivo, Mouse, C57BL6; conditions: for anti-OVA IgG1 concentrations in serum: 7.5 and 10 mg/kg IP BID for a single day, 3, 6, 14 or 28 days after immunization, Day 30 and Day 62 samples
Experimental: A study was performed to evaluate the effect of plinabulin on boosting B-cell response to immunization. Samples were prepared using an emulsion of complete Freund's adjuvant (CFA) with the foreign protein ovalbumin (OVA), each with varying concentrations of plinabulin (plinabulin doses range from 0.01 mg to 30 mg), and the control was prepared with no plinabulin added. Normal healthy mice were immunized by subcutaneous injection of the CFA+OVA emulsion +/−plinabulin, and/or intraperitoneal injection of ALUM+OVA adjuvant +/−plinabulin (n=5 mice per plinabulin dose group). At different time points as discussed below in this Example, the animals were bled to collect serum for evaluating the concentration of IgG that binds OVA in the serum.
DOSE PREPARATION OF OVALBUMIN EMULSIONS IN COMPLETE FREUND'S ADJUVANT: EndoFit™ Ovalbumin Kit (InvivoGen, USA), containing 10 mg powder in one glass vial and 10 mL of sterile endotoxin-free physiological water in one glass vial, and CFA 10 mL in one glass vial were received in good condition and stored at 2-8° C. until Day 1. The sterile endotoxin-free saline solution was allowed to reach room temperature before use. Inside a BSL2 cabinet, 5 mL sterile water was added into the vial containing 10 mg of OVA and gently agitated to obtain a homogenous 2 mg/mL OVA solution. To 2.5 mL of CFA, 2.5 mL of OVA solution was added; and the mixture was emulsified by vigorously mixing into two connected 10 mL locking syringes to prepare a 1 mg/mL OVA/CFA emulsion. The emulsification was kept chilled by placing the apparatus into crushed ice for 5 minutes, then mixing and cooling was repeated an additional two times. Stability of the emulsion was tested by adding a drop into water to verify that the emulsion would not dissipate. The emulsion was transferred into five 1 mL syringes for injection and kept cool on crushed ice until immunization. The emulsification processes were repeated with an additional 2.5 mL of OVA solution and 2.5 mL of CFA during immunization of animals to use within 4 hours of preparation.
DOSE PREPARATION OF TEST ARTICLES: Plinabulin solution (Plin-A) at a 0.75 mg/mL was prepared on each day of dosing. Plinabulin powder (3 mg) was weighed into a separate light protected amber vial at room temperature. Using a micropipette, 284 μL of Tween-80 was added to the amber vial and vortex for 1 minute. 1,020 μL of propylene glycol was added to the amber vial and vortexed for 15 minutes, then sonicated in a water bath for 30 minutes. Finally, 2,696 μL of 5% dextrose in water was added to the solution and vortexed for 3 minutes to achieve 4 mL of a 0.75 mg/mL plinabulin solution. Plinabulin solution (Plin-B) at a 1.0 mg/mL was prepared on each day of dosing. Plinabulin powder (3 mg) was weighed into a separate light protected amber vial at room temperature. Using a micropipette, 213 μL of Tween-80 was added to the amber vial and vortex for 1 minute. 765 μL of propylene glycol was added to the amber vial and vortex for 15 minutes, then sonicated in a water bath for 30 minutes. Finally, 2,022 μL of 5% dextrose in water was added to the solution and vortexed for 3 minutes to achieve 3 mL of a 1.0 mg/mL plinabulin solution.
ANTI-OVALBUMIN ASSAY: Mouse anti-OVA IgG1 ELISA kits (Cayman Chemical, USA) were purchased to perform the assay. Serum samples from Day 30 were assayed in 1-to-2,000, 1-to-6,000 and 1-to-20,000 dilution. Serum samples from Day 62 were assayed in 1-to-2,000 and 1-to-20,000 dilution. […]

[1] = human; cited from earlier work

## CC(C)(C)c1[nH]cnc1/C=c1\[nH]c(=O)/c(=C/c2ccccc2)[nH]c1=O [Plinabulin, (3Z,6Z)-3-Benzylidene-6-{[5-(2-methyl-2-propanyl)-1H-imidazol-4-yl]methylene}-2,5-piperazinedione]
Ovalbumin IgG1
  anti-OVA IgG1 concentrations in serum: inhibitory effects on anti-OVA in 4 out of 5 subgroups
Ovalbumin IgG1; listed as plinabulin
  anti-OVA IgG1 concentrations in serum: significantly reduced, or tended to be reduced
Ovalbumin IgG1; mice immunized with CFA+OVA or ALUM+OVA +/- plinabulin
  concentration of anti-OVA IgG in serum versus immunization without plinabulin: higher concentrations of anti-OVA IgG
Ovalbumin IgG1; subgroup 1: 7.5 mg/kg IP BID, 1 hour after immunization, Day 62
  OVA IgG1 production in serum on Day 62: significantly increased OVA IgG1 production
Ovalbumin IgG1; subgroup 1: plinabulin IP BID 3 hours apart, 1 hour after OVA/CFA immunization, Day 30
  production of OVA IgG1 in serum on Day 30: dose-dependently increased the production of OVA IgG1 on Day 30 without reaching statistical significance
[1]
  plasma elimination half-life: 5 to 6 h
